Reference: US20080070946A1, “Hydroxymethylbenzothiazoles Amides” (AstraZeneca AB, priority 2004, published 2008)
pIC50: −log10 of the molar value.

Assays:
[1] = biological target: T1, hVR1 (Homo sapiens, UniProt Q8NER1); test: hVR1 FLIPR (Fluorometric Image Plate Reader) screening assay, IC50 determination; assay type: cell-based; conditions: CHO cells stably expressing hVR1
T1 construct: expressed in transfected cells
Protocol: 1. hVR1 FLIPR (Fluorometric Image Plate Reader) Screening Assay
Transfected CHO cells, stably expressing hVR1 (15,000 cells/well) are seeded in 50 ul media in a black clear bottom 384 plate (Greiner) and grown in a humidified incubator (37° C., 2% CO2), 24-30 hours prior to experiment.
Subsequently, the media is removed from the cell plate by inversion and 2 μM Fluo-4 is added using a multidrop (Labsystems). Following the 40 minutes dye incubation in the dark at 37° C. and 2% CO2, the extracellular dye present is washed away using an EMBLA (Scatron), leaving the cells in 40 ul of assay buffer (1× HBSS, 10 mM D-Glucose, 1 mM CaCl2, 10 mM HEPES, 10×7.5% NaHCO3 and 2.5 mM Probenecid).
FLIPR Assay—IC50 Determination Protocol
For IC50 determinations the fluorescence is read using FLIPR filter 1 (em […]). A cellular baseline recording is taken for 30 seconds, followed by a 20 μl addition of 10, titrated half-log concentrations of the test compound, yielding cellular concentration ranging from 3 μM to 0.1 nM. Data is collected every 2 seconds for a further 5 minutes prior to the addition of a VR1 agonist solution: either 50 nM solution of capsaicin or MES (2-[N-morpholino]ethanesulfonic acid) buffer (pH 5.2), by the FLIPR pipettor. The FLIPR continues to collect data for a further 4 minutes. Compounds having antagonistic properties against the hVR1 will inhibit the increase in intracellular calcium in response to the capsaicin addition. This consequently leading to a reduction in fluorescence signal and providing a reduced fluorescence reading, compared with no compound, buffer controls. Data is exported by the FLIPR program as a sum of fluorescence calculated under the curve upon the addition of capsaicin. Maximum inhibition, Hill slope and IC50 data for each compound are generated.

[2] = Metabolic stability in rat hepatocytes (intrinsic clearance); assay type: in vitro ADME; conditions: male, Sprague-Dawley, freshly isolated rat hepatocytes, read-out: rClint hep
Protocol: Metabolic Stability in Rat Hepatocytes
Cells source: in house fresh isolated rat hepatocytes from male sprague-Dawley.
1 μM of compound incubated in Krebs-Heinsleit buffer with 1×10^6 cells in 37° C. for 0, 15, 30, 60 and 90 min. A total volume of each incubation was 100 μL containing 0.1% DMSO. The reaction was stopped by adding 100 μL acetonitrile.
After reaction was stopped. The sample was centrifuged at 1900 g for 5 min. Supernatant was transferred to a clean tube for analysis.

T1 sequence (Q8NER1 whole entry): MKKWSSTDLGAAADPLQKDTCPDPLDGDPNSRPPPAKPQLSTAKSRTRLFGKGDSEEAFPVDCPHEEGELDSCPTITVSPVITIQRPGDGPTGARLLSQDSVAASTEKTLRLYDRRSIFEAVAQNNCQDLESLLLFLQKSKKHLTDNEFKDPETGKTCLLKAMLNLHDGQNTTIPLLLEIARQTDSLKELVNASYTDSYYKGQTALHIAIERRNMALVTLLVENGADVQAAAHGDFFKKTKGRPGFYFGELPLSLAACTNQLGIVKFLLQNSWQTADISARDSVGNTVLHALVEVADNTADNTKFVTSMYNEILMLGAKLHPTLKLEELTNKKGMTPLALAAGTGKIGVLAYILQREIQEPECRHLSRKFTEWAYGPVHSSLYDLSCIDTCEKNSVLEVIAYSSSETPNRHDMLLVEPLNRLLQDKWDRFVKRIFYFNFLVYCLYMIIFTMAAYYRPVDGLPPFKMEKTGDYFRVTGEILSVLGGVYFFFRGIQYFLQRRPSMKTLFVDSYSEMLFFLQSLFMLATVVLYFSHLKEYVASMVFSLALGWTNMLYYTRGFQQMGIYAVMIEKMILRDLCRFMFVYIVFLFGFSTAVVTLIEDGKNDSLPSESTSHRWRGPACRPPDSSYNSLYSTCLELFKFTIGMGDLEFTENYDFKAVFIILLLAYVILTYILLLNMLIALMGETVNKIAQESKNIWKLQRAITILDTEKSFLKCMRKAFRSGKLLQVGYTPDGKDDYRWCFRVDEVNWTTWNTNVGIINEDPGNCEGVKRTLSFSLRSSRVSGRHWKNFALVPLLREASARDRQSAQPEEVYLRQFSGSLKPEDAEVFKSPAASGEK

pIC50 ([1]; agonist capsaicin)	pIC50 ([1]; agonist pH 5.2 buffer)	Hepatocyte intrinsic clearance at 1 μM [2] [µL/min/mg]	SMILES
8.10	–	–	O=C(Nc1ccc2sc(CO)nc2c1)c1ccc(OC(F)(F)C(F)F)cc1 [Example 5, N-[2-(hydroxymethyl)-1,3-benzothiazol-5-yl]-4-(1,1,2,2-tetrafluoroethoxy)benzamide]
7.64	–	–	O=C(Nc1ccc2sc(CO)nc2c1)c1ccc(C2CCCCC2)cc1 [Example 6, 4-Cyclohexyl-N-[2-(hydroxymethyl)-1,3-benzothiazol-5-yl]benzamide]
8.40	–	–	O=C(Nc1ccc2sc(CO)nc2c1)c1ccc(C(F)(F)F)c(F)c1 [Example 7, 3-Fluoro-N-[2-(hydroxymethyl)-1,3-benzothiazol-5-yl]-4-(trifluoromethyl)benzamide]
–	6.38	–	O=C(Nc1ccc2sc(CO)nc2c1)c1ccc(C(F)(F)F)nc1 [Example 8, N-[2-(hydroxymethyl)-1,3-benzothiazol-5-yl]-6-(trifluoromethyl)nicotinamide]
7.07	–	–	O=C(Nc1ccc2sc(CO)nc2c1)c1ccc(N2CCCCC2)nc1 [Example 9, N-[2-(hydroxymethyl)-1,3-benzothiazol-5-yl]-6-piperidin-1-ylnicotinamide]
7.27	–	14	CN(C)c1ccc(C(=O)Nc2ccc3sc(CO)nc3c2)c2ccccc12 [Example 10, 4-(dimethylamino)-N-[2-(hydroxymethyl)-1,3-benzothiazol-5-yl]-1-naphthamide]
7.33	–	10	Cc1cc(OC(C)C)ccc1C(=O)Nc1ccc2sc(CO)nc2c1 [Example 24, N-[2-(hydroxymethyl)-1,3-benzothiazol-5-yl]-4-isopropoxy-2-methylbenzamide]
7.17	–	11.8	Cc1cc(OC(C)C)ccc1C(=O)Nc1ccc2sc(CO)nc2c1F [Example 40, N-[4-fluoro-2-(hydroxymethyl)-1,3-benzothiazol-5-yl]-4-isopropoxy-2-methylbenzamide]
5.71	–	–	Cc1nc(C(F)(F)F)ccc1C(=O)Nc1ccc2sc(CO)nc2c1F [Example 41, N-[4-fluoro-2-(hydroxymethyl)-1,3-benzothiazol-5-yl]-2-methyl-6-(trifluoromethyl)nicotinamide]
6.04	–	–	O=C(Nc1ccc2sc(CO)nc2c1F)c1ccc(C(F)(F)F)nc1 [Example 42, N-[4-fluoro-2-(hydroxymethyl)-1,3-benzothiazol-5-yl]-6-(trifluoromethyl)nicotinamide]
6.31	–	–	O=C(Nc1ccc2sc(CO)nc2c1F)c1ccc(OCC(F)(F)F)nc1 [Example 43, N-[4-fluoro-2-(hydroxymethyl)-1,3-benzothiazol-5-yl]-6-(2,2,2-trifluoroethoxy)nicotinamide]

SMILES	pIC50 ([1]; agonist capsaicin)	pIC50 ([1]; agonist pH 5.2 buffer)	Hepatocyte intrinsic clearance at 1 μM [2] [µL/min/mg]
Cc1cc(OC(C)(C)C)ccc1C(=O)Nc1ccc2sc(CO)nc2c1 [Example 23, 4-tert-butoxy-N-[2-(hydroxymethyl)-1,3-benzothiazol-5-yl]-2-methylbenzamide]	7.23	–	22
